From ChEMBL document CHEMBL4831500, “Discovery of first-in-class imidazothiazole-based potent and selective ErbB4 (HER4) kinase inhibitors” (Eur J Med Chem, 2021)

Key:
[1] = target: Voltage-gated inwardly rectifying potassium channel KCNH2 (Homo sapiens, UniProt Q12809); assay: Inhibition of human ERG incubated for 3 hrs by competitive fluorescence tracer binding based assay
[2] = target: T1, RAF proto-oncogene serine/threonine-protein kinase (Homo sapiens, UniProt P04049); assay: Inhibition of RAF1 (unknown origin) incubated for 40 mins in presence of Mg/ATP mix by [gamma p33]-ATP based scintillation counting method
[3] = target: T2, Receptor tyrosine-protein kinase erbB-4 (Homo sapiens, UniProt Q15303); assay: Inhibition of ErbB4 (unknown origin) at 10 uM incubated for 40 mins in presence of Mg/ATP mix by [gamma p33]-ATP based scintillation counting method relative to control
[4] = target: Epidermal growth factor receptor (Homo sapiens, UniProt P00533, L861Q); assay: Inhibition of EGFR- L861Q mutant (unknown origin) incubated for 40 mins in presence of Mg/ATP mix by [gamma p33]-ATP based scintillation counting method
[5] = target: Serine/threonine-protein kinase B-raf (Homo sapiens, UniProt P15056, V600E); assay: Inhibition of BRAF V600E mutant (unknown origin) incubated for 40 mins in presence of Mg/ATP mix by [gamma p33]-ATP based scintillation counting method
[6] = target: Epidermal growth factor receptor (Homo sapiens, UniProt P00533, T790M); assay: Inhibition of EGFR- T790M mutant (unknown origin) incubated for 40 mins in presence of Mg/ATP mix by [gamma p33]-ATP based scintillation counting method
hERG (KCNH2) = hERG (KCNH2) (Homo sapiens, UniProt Q12809); assay: Safety index, ratio of test compound IC50 to E-4031 IC50 for inhibition of human ERG incubated for 3 hrs by competitive fluorescence tracer binding based assay; details: read-out: Ratio IC50
[7] = target: T3, Serine/threonine-protein kinase B-raf (Homo sapiens, UniProt P15056); assay: Inhibition of wild type B-RAF (unknown origin) incubated for 40 mins in presence of Mg/ATP mix by [gamma p33]-ATP based scintillation counting method
[8] = target: T4, Vascular endothelial growth factor receptor 2 (Homo sapiens, UniProt P35968); assay: Inhibition of KDR (unknown origin) incubated for 40 mins in presence of Mg/ATP mix by [gamma p33]-ATP based scintillation counting method
Homo sapiens = species on record: Homo sapiens; assay: Selectivity ratio of IC50 for inhibition of EFGR-T790M mutant (unknown origin) to IC50 for ErbB4 (unknown origin); details: time 40.0 min
[9] = target: Receptor-type tyrosine-protein kinase FLT3 (Homo sapiens, UniProt P36888); assay: Inhibition of FLT-3(unknown origin) incubated for 40 mins in presence of Mg/ATP mix by [gamma p33]-ATP based scintillation counting method
[10] = target: Epidermal growth factor receptor (Homo sapiens, UniProt P00533, L858R/T790M); assay: Inhibition of EGFR T790M/L858R mutant (unknown origin) incubated for 40 mins in presence of Mg/ATP mix by [gamma p33]-ATP based scintillation counting method
[11] = system: Panel NCI-60 (60 carcinoma cell lines); assay: Growth inhibition of human panel NCI-60 (60 carcinoma cells) assessed as growth percent at 10 uM measured after 48 hrs by SRB assay relative to control; assay type: functional; details: read-out: Activity
[12] = target: T2, Receptor tyrosine-protein kinase erbB-4; assay: Inhibition of ErbB4 (unknown origin) incubated for 40 mins in presence of Mg/ATP mix by [gamma p33]-ATP based scintillation counting method
[13] = target: Serine/threonine-protein kinase A-Raf (Homo sapiens, UniProt P10398); assay: Inhibition of A-RAF (unknown origin) incubated for 40 mins in presence of Mg/ATP mix by [gamma p33]-ATP based scintillation counting method
Cytochrome P450 2D6 = Cytochrome P450 2D6 (Homo sapiens, UniProt P10635); assay: Inhibition of CYP2D6 (unknown origin) using EOMCC as a substrate incubated for 20 mins by fluorescence based analysis; assay type: ADME
[14] = target: Dual specificity mitogen-activated protein kinase kinase 2 (Homo sapiens, UniProt P36507); assay: Inhibition of MEK2 (unknown origin) incubated for 40 mins in presence of Mg/ATP mix by [gamma p33]-ATP based scintillation counting method
Cytochrome P450 3A4 = Cytochrome P450 3A4 (Homo sapiens, UniProt P08684); assay: Inhibition of CYP3A4 (unknown origin) using BOMCC as a substrate incubated for 20 mins by fluorescence based analysis; assay type: ADME
CYP3A4 = CYP3A4 (Homo sapiens, UniProt P08684); assay: Potency index, ratio of test compound IC50 to ketoconazole IC50 for inhibition of CYP3A4 (unknown origin) using BOMCC as a substrate incubated for 20 mins by fluorescence based analysis; assay type: ADME; details: probe BOMCC
[15] = system: Serine/threonine-protein kinase B-raf (Homo sapiens), P15056 [V600E]; assay: Inhibition of BRAF V600E mutant (unknown origin) at 10 uM incubated for 40 mins in presence of Mg/ATP mix by [gamma p33]-ATP based scintillation counting method relative to control
OVCAR-4 [16] = assay: Antiproliferative activity against human OVCAR-4 cells assessed as cell growth inhibition at 10 uM measured after 48 hrs by SRB assay relative to control; assay type: functional
[17] = target: Proto-oncogene tyrosine-protein kinase Src (Homo sapiens) (UniProt P12931); assay: Inhibition of C-SRC (unknown origin) at 10 uM incubated for 40 mins in presence of Mg/ATP mix by [gamma p33]-ATP based scintillation counting method relative to control
[18] = target: T4, Vascular endothelial growth factor receptor 2; assay: Inhibition of KDR (unknown origin) at 10 uM incubated for 40 mins in presence of Mg/ATP mix by [gamma p33]-ATP based scintillation counting method relative to control
SNB-75 [19] = assay: Antiproliferative activity against human SNB-75 cells assessed as cell growth inhibition measured after 48 hrs by SRB assay; assay type: functional, cell-based; details: SNB-75, 48 h
MDA-MB-468 [20] = assay: Antiproliferative activity against human MDA-MB-468 cells assessed as cell growth inhibition measured after 48 hrs by SRB assay; assay type: functional, cell-based; details: MDA-MB-468, 48 h
[21] = target: T3, Serine/threonine-protein kinase B-raf; assay: Inhibition of wild type B-RAF (unknown origin) at 10 uM incubated for 40 mins in presence of Mg/ATP mix by [gamma p33]-ATP based scintillation counting method relative to control
DU-145 [22] = assay: Antiproliferative activity against human DU-145 cells assessed as cell growth inhibition at 10 uM measured after 48 hrs by SRB assay relative to control; assay type: functional
HL-60(TB) [23] = assay: Antiproliferative activity against human HL-60(TB) cells assessed as cell growth inhibition at 10 uM measured after 48 hrs by SRB assay relative to control; assay type: functional
[24] = target: T1, RAF proto-oncogene serine/threonine-protein kinase; assay: Inhibition of RAF1 (unknown origin) at 10 uM incubated for 40 mins in presence of Mg/ATP mix by [gamma p33]-ATP based scintillation counting method relative to control
[25] = target: Fibroblast growth factor receptor 1 (Homo sapiens) (UniProt P11362); assay: Inhibition of FGFR1 (unknown origin) at 10 uM incubated for 40 mins in presence of Mg/ATP mix by [gamma p33]-ATP based scintillation counting method relative to control
UO-31 [26] = assay: Antiproliferative activity against human UO-31 cells assessed as cell growth inhibition at 10 uM measured after 48 hrs by SRB assay relative to control; assay type: functional
SK-MEL-5 [27] = assay: Antiproliferative activity against human SK-MEL-5 cells assessed as cell growth inhibition measured after 48 hrs by SRB assay; assay type: functional, cell-based; details: SK-MEL-5, 48 h
HL-60(TB) [28] = assay: Antiproliferative activity against human HL-60(TB) cells assessed as cell growth inhibition measured after 48 hrs by SRB assay; assay type: functional, cell-based; details: HL-60, 48 h
SK-MEL-5 [29] = assay: Antiproliferative activity against human SK-MEL-5 cells assessed as cell growth inhibition at 10 uM measured after 48 hrs by SRB assay relative to control; assay type: functional
NCI-H322M = assay: Antiproliferative activity against human NCI-H322M cells assessed as cell growth inhibition measured after 48 hrs by SRB assay; assay type: functional, cell-based
OVCAR-4 [30] = assay: Antiproliferative activity against human OVCAR-4 cells assessed as cell growth inhibition measured after 48 hrs by SRB assay; assay type: functional, cell-based; details: OVCAR-4, 48 h
SNB-75 [31] = assay: Antiproliferative activity against human SNB-75 cells assessed as cell growth inhibition at 10 uM measured after 48 hrs by SRB assay relative to control; assay type: functional
[32] = target: Epidermal growth factor receptor (Homo sapiens, UniProt P00533); assay: Inhibition of EGFR (unknown origin) at 10 uM incubated for 40 mins in presence of Mg/ATP mix by [gamma p33]-ATP based scintillation counting method relative to control
[33] = Cytotoxicity against human WI-38 cells assessed as cell growth inhibition at 10 uM measured after 48 hrs by SRB assay relative to control; assay type: cell-based
MDA-MB-468 [34] = assay: Antiproliferative activity against human MDA-MB-468 cells assessed as cell growth inhibition at 10 uM measured after 48 hrs by SRB assay relative to control; assay type: functional
WI-38 = assay: Cytotoxicity against human WI-38 cells assessed as cell growth inhibition measured after 48 hrs by SRB assay; assay type: cell-based; details: WI-38, 48 h
[35] = target: Receptor tyrosine-protein kinase erbB-2 (Homo sapiens) (UniProt P04626); assay: Inhibition of ErbB2 (unknown origin) at 10 uM incubated for 40 mins in presence of Mg/ATP mix by [gamma p33]-ATP based scintillation counting method relative to control
UO-31 [36] = assay: Antiproliferative activity against human UO-31 cells assessed as cell growth inhibition measured after 48 hrs by SRB assay; assay type: functional, cell-based; details: UO-31, 48 h
DU-145 [37] = assay: Antiproliferative activity against human DU-145 cells assessed as cell growth inhibition measured after 48 hrs by SRB assay; assay type: functional, cell-based; details: DU-145, 48 h

T2 sequence (Q15303 whole entry): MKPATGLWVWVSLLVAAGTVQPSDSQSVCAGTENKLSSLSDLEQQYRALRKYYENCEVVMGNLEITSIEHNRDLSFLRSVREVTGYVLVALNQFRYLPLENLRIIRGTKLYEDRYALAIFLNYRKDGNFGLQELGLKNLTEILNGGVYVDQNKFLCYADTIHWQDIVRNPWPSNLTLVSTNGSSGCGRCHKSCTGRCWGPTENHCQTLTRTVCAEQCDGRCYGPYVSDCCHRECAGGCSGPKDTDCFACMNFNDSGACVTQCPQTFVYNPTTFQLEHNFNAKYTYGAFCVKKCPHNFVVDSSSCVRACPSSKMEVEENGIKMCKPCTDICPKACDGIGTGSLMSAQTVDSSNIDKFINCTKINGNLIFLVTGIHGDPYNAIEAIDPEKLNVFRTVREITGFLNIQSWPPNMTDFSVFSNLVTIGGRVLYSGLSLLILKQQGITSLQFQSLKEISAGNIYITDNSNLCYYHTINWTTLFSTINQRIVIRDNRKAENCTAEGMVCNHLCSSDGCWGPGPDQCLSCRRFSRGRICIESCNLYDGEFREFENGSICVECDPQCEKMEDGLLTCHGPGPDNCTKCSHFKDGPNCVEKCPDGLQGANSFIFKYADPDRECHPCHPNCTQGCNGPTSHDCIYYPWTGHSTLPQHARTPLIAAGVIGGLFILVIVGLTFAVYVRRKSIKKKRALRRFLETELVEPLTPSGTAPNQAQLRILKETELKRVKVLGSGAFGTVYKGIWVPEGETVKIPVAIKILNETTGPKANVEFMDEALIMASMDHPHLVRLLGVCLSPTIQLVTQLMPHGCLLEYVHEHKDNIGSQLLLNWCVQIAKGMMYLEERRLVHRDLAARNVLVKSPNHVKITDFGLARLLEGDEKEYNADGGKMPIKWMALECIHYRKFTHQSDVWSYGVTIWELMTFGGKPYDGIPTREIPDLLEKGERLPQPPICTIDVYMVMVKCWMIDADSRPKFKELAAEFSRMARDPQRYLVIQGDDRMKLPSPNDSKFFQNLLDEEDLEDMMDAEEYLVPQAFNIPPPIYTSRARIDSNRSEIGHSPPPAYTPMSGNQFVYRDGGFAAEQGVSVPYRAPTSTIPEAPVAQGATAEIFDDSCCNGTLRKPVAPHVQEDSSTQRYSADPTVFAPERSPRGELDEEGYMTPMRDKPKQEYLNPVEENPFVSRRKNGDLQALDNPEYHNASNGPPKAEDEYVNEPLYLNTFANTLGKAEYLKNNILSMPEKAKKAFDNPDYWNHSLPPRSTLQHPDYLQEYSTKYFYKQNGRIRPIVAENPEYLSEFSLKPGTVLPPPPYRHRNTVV
T4 sequence (P35968 whole entry): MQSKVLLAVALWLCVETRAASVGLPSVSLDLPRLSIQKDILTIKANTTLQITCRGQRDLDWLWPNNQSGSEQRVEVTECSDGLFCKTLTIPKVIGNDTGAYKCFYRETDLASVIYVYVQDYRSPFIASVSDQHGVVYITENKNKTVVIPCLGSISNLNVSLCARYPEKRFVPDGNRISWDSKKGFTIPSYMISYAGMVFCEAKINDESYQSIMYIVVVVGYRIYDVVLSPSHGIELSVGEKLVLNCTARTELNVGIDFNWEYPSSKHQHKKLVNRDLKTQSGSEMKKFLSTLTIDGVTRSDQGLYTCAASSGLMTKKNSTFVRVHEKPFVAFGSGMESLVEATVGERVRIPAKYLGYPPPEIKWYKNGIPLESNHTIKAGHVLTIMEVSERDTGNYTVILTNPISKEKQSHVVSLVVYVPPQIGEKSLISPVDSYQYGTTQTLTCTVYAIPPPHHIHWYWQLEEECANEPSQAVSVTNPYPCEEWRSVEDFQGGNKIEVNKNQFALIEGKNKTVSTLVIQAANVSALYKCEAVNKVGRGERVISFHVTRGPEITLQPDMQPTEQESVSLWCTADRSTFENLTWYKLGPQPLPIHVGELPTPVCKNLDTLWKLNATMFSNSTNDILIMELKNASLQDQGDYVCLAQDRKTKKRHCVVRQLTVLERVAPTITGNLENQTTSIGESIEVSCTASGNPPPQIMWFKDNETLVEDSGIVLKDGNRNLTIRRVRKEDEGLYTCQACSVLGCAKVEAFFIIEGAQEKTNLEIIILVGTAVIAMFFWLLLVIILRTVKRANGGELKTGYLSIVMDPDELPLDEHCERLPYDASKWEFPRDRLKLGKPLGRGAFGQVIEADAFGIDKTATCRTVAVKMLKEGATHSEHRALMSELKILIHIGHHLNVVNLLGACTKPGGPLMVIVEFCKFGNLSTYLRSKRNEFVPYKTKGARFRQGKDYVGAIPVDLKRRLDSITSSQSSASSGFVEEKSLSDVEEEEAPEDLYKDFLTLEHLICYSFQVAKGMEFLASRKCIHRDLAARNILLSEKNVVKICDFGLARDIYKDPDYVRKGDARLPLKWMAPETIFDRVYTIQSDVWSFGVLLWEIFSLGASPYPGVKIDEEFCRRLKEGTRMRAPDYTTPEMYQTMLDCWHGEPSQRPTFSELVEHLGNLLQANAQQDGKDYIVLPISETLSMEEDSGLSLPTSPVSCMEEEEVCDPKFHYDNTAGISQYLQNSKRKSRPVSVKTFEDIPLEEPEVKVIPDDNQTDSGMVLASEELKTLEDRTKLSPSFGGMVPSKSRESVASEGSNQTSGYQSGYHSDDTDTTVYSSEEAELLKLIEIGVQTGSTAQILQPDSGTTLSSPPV
T3 sequence (P15056 whole entry): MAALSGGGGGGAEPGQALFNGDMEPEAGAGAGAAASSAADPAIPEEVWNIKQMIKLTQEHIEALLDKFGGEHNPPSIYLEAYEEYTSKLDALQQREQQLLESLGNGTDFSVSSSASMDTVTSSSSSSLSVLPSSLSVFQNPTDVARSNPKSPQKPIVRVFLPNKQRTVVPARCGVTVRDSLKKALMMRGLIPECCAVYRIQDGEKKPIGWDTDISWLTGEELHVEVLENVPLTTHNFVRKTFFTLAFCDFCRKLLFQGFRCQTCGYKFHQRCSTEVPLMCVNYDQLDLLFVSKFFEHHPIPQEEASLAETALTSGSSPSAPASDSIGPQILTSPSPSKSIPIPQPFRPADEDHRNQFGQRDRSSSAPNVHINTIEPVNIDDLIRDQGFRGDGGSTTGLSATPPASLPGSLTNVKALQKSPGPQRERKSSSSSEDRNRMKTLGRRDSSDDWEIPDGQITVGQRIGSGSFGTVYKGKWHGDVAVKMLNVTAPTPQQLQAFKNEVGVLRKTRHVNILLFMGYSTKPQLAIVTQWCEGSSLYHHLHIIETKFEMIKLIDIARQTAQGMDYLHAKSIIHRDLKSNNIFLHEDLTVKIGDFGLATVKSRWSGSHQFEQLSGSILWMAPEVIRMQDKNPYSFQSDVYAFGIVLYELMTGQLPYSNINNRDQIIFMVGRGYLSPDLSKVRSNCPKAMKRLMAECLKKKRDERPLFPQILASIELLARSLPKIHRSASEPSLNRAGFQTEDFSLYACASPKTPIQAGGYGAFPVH
T1 sequence (P04049 whole entry): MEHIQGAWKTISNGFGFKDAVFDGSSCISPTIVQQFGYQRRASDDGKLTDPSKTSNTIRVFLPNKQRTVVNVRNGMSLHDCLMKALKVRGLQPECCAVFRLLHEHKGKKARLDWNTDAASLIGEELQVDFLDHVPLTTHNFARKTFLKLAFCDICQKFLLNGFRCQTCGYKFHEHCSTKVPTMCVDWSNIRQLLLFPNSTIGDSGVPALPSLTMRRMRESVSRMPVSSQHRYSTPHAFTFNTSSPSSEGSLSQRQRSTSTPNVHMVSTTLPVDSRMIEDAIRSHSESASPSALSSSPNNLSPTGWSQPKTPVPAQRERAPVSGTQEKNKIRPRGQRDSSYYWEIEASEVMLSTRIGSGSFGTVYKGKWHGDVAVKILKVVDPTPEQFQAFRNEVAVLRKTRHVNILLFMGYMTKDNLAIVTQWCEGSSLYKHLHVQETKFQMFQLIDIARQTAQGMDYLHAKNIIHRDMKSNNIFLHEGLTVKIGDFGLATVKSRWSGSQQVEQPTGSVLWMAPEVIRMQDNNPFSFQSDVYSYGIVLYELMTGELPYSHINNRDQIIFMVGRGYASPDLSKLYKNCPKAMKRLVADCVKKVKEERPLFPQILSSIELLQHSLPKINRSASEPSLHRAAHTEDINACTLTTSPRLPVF
Chain of Serine/threonine-protein kinase B-raf (Homo sapiens), P15056 [V600E] (P15056 whole entry V600E): as the sequence (P15056 whole entry) above, with V600E counted along it
Chain of Fibroblast growth factor receptor 1 (Homo sapiens) (P11362 22-822 limits assumed): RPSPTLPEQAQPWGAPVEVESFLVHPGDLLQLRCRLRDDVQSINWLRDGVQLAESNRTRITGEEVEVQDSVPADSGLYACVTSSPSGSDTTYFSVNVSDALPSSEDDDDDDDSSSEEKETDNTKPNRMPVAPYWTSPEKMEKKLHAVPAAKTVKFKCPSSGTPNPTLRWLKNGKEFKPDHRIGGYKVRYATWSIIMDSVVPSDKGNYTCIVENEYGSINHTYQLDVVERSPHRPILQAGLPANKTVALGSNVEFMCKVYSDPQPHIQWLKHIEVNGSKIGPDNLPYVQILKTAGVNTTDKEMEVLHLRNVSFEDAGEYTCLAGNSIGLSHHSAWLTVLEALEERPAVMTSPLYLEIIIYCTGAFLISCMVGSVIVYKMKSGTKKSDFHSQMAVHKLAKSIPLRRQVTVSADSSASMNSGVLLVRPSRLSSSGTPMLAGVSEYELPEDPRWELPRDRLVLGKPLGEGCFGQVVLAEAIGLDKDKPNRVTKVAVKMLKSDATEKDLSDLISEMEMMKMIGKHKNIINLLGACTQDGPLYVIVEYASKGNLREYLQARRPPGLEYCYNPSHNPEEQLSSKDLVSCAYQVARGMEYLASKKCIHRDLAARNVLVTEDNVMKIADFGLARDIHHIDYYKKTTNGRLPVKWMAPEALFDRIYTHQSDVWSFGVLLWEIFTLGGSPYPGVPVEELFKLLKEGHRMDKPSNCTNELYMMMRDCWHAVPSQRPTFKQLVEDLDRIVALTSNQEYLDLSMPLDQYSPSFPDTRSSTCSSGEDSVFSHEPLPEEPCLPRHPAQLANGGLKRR

c1ccc(COc2cccc(-c3nc4sccn4c3-c3ccncn3)c2)cc1
IC50 [1]: 12800 nM
IC50 [2]: 2030 nM
inhibition [3]: > 60%
IC50 [4]: 4350 nM
IC50 [5]: 1590 nM
IC50 [6]: 380 nM
selectivity ratio at 3 h (hERG (KCNH2)): 530
IC50 [7]: 1000 nM
IC50 [8]: 710 nM
Selectivity Index (Homo sapiens): 21.5
IC50 [9]: 1360 nM
IC50 [10]: 8560 nM
growth at 10 µM [11]: 78.4%
IC50 [12]: 17.7 nM
IC50 [13]: 7060 nM
IC50 (Cytochrome P450 2D6): > 90000 nM
IC50 [14]: 3250 nM
IC50 (Cytochrome P450 3A4): 20900 nM
selectivity ratio at 20 min (CYP3A4): 8790

CS(=O)(=O)c1nccc(-c2c(-c3cccc(OCc4ccc(F)cc4)c3)nc3sccn23)n1
inhibition [15]: 33.6%
inhibition at 10 µM (OVCAR-4 [16]): 34.9%
inhibition [17]: 2.46%
inhibition [18]: 24.8%
inhibition [3]: 60.2%
IC50 (SNB-75 [19]): 15600 nM
IC50 (MDA-MB-468 [20]): 1800 nM
inhibition [21]: 9.62%
inhibition at 10 µM (DU-145 [22]): 154%
inhibition at 10 µM (HL-60(TB) [23]): 56.3%
inhibition [24]: 10.8%
inhibition [25]: -0.04%
inhibition at 10 µM (UO-31 [26]): 124%
IC50 (SK-MEL-5 [27]): 1540 nM
IC50 (HL-60(TB) [28]): 3360 nM
inhibition at 10 µM (SK-MEL-5 [29]): 94.6%
IC50 (NCI-H322M): 1820 nM
IC50 (OVCAR-4 [30]): 3980 nM
growth at 10 µM [11]: 60.6%
inhibition at 10 µM (SNB-75 [31]): 4.08%
inhibition [32]: -5.54%
inhibition at 48 h, 10 µM [33]: 21.6%
inhibition at 10 µM (MDA-MB-468 [34]): 164%
IC50 (WI-38): 12600 nM
inhibition [35]: -2.99%
IC50 (UO-31 [36]): 1680 nM
IC50 (DU-145 [37]): 1890 nM
